Earlier results, collected in patent US20220016119A1, “METHODS AND TREATMENTS FOR ERECTILE DYSFUNCTION” (Record Buck Farms Medical Cannabis, LLC, priority 2018, published 2022).

Details: doses of up to 1500 mg/day

Compound: C=C(C)[C@@H]1CCC(C)=C[C@H]1c1c(O)cc(CCCCC)cc1O [Cannabidiol, cannabidiol]
- adverse effects in patients: no significant adverse effects
